What all share (assay type): in vivo
The test system of experiment [1] is Monocots. As to the kind of experiment: Herbicidal activity, preemergence, monocot weeds (Table II). The following applies: pre-emergence, 336 h, about 2 weeks, read-out: % control (percent of plants killed); for pest or weed control at 4483.4 g/ha: 4 lb./A.; for pest or weed control at 11208.5 g/ha: 10 lb./A.; for pest or weed control at 2241.7 g/ha: 2 lb./A. On the procedure:
(§1) Using the procedure described below, diphenyl ethers were evaluated for control of the following weeds: […]
(§2) barnyardgrass (Echinochloa crusgalli) crabgrass (Digitaria spp.) nutsedge (Cyperus esculentus)
(§3) At 2 and 4 pounds per acre:
(§4) **Bermudagrass (Cynodon dactylon)
(§5) *downy brome (Bromus tectorum) foxtail (Setaria faberii)
(§6) Johnsongrass (Sorghum halepense) […]
(§7) quackgrass (Agropyron repens)
(§8) *ryegrass (Lolium perenne)
(§9) *yellow millet (Panicum miliaceum)
(§10) The following test procedure is employed. Seeds of selected crops and weeds are planted in soil in flats. For preemergence tests, the flats are treated with the test compound immediately after the planting. For postemergence tests, the seeds are allowed to germinate, and after 2 weeks the flats are treated with the test compound. The compound to be evaluated is dissolved in acetone, diluted with water, and sprayed over the flats using a carrier volume equivalent to 50 gallons per acre at the rate of application (pounds per acre, lb/A.) specified in the tables. About 2 weeks after the application of the test compound, the state of growth of the plants is observed and the phytotoxic effect of the compound is evaluated. Table II gives the average percent control achieved by the test compounds in terms of the percent of the plants which are killed by the compounds.

Experiment [2] concerns Dicots. Briefly: Herbicidal activity, preemergence, dicot weeds (Table II). The following applies: pre-emergence, 336 h, about 2 weeks, read-out: % control (percent of plants killed); for pest or weed control at 4483.4 g/ha: 4 lb./A.; for pest or weed control at 11208.5 g/ha: 10 lb./A.; for pest or weed control at 2241.7 g/ha: 2 lb./A. The procedure: as §1
(§11) bindweed (Convolvulus arvensis) curly dock (Remex crispus) velvetleaf (Abutilon theophrasti) wild mustard (Brassica haber)
(§12) At 2 and 4 pounds per acre: […]
(§13) cocklebur (Xanthium pensylvanicum)
(§14) **coffeeweed (Sesbania macrocarpa)
(§15) *curly dock (Rumex crispus)
(§16) *lambsquarters (Chenopodium album) morningglory (Ipomoea purpurea)
(§17) *pigweed (Amaranthus retroflexus)
(§18) **ragweed (Ambrosia artemisiifolia)
(§19) *smartweed (Polygonum pensylvanicum)
(§20) **tomato (Lycopersicon esculentum)
(§21) *wild carrot (Daucus carota)
(§22) *wild mustard (Brassica haber)
as §10

The test system of experiment [3] is Monocots. Briefly: Herbicidal activity, postemergence, monocot weeds (Table II). Conditions: post-emergence, 336 h, about 2 weeks, read-out: % control (percent of plants killed); for pest or weed control at 4483.4 g/ha: 4 lb./A.; for pest or weed control at 11208.5 g/ha: 10 lb./A.; for pest or weed control at 2241.7 g/ha: 2 lb./A. On the procedure:
as §1, §2, §3, §4, §5, §6, §7, §8, §9, §10

Experiment [4] relates to Dicots. As to the kind of experiment: Herbicidal activity, postemergence, dicot weeds (Table II). The following applies: post-emergence, 336 h, about 2 weeks, read-out: % control (percent of plants killed); for pest or weed control at 4483.4 g/ha: 4 lb./A.; for pest or weed control at 11208.5 g/ha: 10 lb./A.; for pest or weed control at 2241.7 g/ha: 2 lb./A. On the procedure: as §1, §11, §12, §13, §14, §15, §16, §17, §18, §19, §20, §21, §22, §10

Molecules are shown by their SMILES.

For `CCOc1cc(Oc2ccc(C(F)(F)F)cc2)ccc1[N+](=O)[O-]` [Example 1], the pest or weed control at 4483.4 g/ha with Monocots [1] was 76%; with Dicots [2], 45%; with Monocots [3], 57%; with Dicots [4], 58%. The pest or weed control at 11208.5 g/ha was 42% in the experiment on Monocots [1], 35% in the experiment with Dicots [2], 82% with Monocots [3] and 100% in the experiment on Dicots [4].
As to `COc1cc(Oc2ccc(C(F)(F)F)cc2Cl)ccc1[N+](=O)[O-]` [Example 2], the pest or weed control at 4483.4 g/ha worked out at 97% with Monocots [1], 80% with Dicots [2], 99% with Monocots [3] and 100% in the experiment on Dicots [4]. Further, the pest or weed control at 11208.5 g/ha was determined as 97% with Monocots [1], 100% in the experiment on Dicots [2], 100% in the experiment on Monocots [3] and 100% in the experiment on Dicots [4].
Turning to `CCCOc1cc(Oc2ccc(C(F)(F)F)cc2Cl)ccc1[N+](=O)[O-]` [Example 5], the pest or weed control at 4483.4 g/ha with Monocots [1] turned out to be 84%; with Dicots [2] it was 78%; in the experiment with Monocots [3], 99%; with Dicots [4], 100%. For the same compound, the pest or weed control at 11208.5 g/ha with Monocots [1] came out at 97%; with Dicots [2], 100%; in the experiment with Monocots [3], 100%; with Dicots [4], 100%.
On to `CCCCOc1cc(Oc2ccc(C(F)(F)F)cc2Cl)ccc1[N+](=O)[O-]` [Example 6], for which the pest or weed control at 4483.4 g/ha with Monocots [1] was 77%; with Dicots [2], 55%; in the experiment on Monocots [3], 91%; in the experiment with Dicots [4] it was 94%. The pest or weed control at 11208.5 g/ha was 65% with Monocots [1], 70% in the experiment on Dicots [2], 97% in the experiment with Monocots [3] and 100% with Dicots [4].
With `CCOc1cc(Oc2ccc(C(F)(F)F)cc2C#N)ccc1[N+](=O)[O-]` [Example 7, 2-Cyano-α,α,α-trifluoro-p-tolyl-3-ethoxy-4-nitrophenyl ether], the pest or weed control at 2241.7 g/ha was determined as 65% in the experiment on Monocots [1], 54% in the experiment on Dicots [2], 82% in the experiment with Monocots [3] and 80% with Dicots [4]. In addition, the pest or weed control at 4483.4 g/ha with Monocots [1] was determined as 65%; with Dicots [2], 57%; in the experiment with Monocots [3], 75%; with Dicots [4], 77%. For the same compound, the pest or weed control at 11208.5 g/ha amounted to 61% in the experiment on Monocots [1], 60% in the experiment on Dicots [2], 100% with Monocots [3] and 100% in the experiment with Dicots [4].
In the case of `CCCOc1cc(Oc2ccc(C(F)(F)F)cc2C#N)ccc1[N+](=O)[O-]` [Example 8], the pest or weed control at 2241.7 g/ha in the experiment with Monocots [1] was 52%; in the experiment on Dicots [2] it was 46%; in the experiment on Monocots [3] it was 35%; with Dicots [4], 66%. Also, the pest or weed control at 4483.4 g/ha worked out at 61% with Monocots [1], 57% in the experiment with Dicots [2], 48% in the experiment with Monocots [3] and 80% with Dicots [4]. The pest or weed control at 11208.5 g/ha stood at 81% in the experiment on Monocots [1], 82% in the experiment on Dicots [2], 85% in the experiment on Monocots [3] and 100% in the experiment with Dicots [4].
As to `Cc1cc(Oc2ccc(C(F)(F)F)cc2C#N)ccc1[N+](=O)[O-]` [Example 9], the pest or weed control at 2241.7 g/ha in the experiment with Monocots [1] turned out to be 81%; in the experiment with Dicots [2] it was 67%; in the experiment with Monocots [3], 82%; with Dicots [4], 75%. Further, the pest or weed control at 4483.4 g/ha in the experiment on Monocots [1] stood at 90%; in the experiment with Dicots [2], 66%; in the experiment with Monocots [3], 97%; with Dicots [4], 81%. Also, the pest or weed control at 11208.5 g/ha is 99% in the experiment with Monocots [1], 92% in the experiment with Dicots [2], 100% in the experiment with Monocots [3] and 100% in the experiment on Dicots [4].
For `O=[N+]([O-])c1ccc(Oc2ccc(C(F)(F)F)cc2Cl)cc1O` [Example 10, 2-Chloro-α,α,α-trifluoro-p-tolyl-3-hydroxy-4-nitrophenyl ether], the pest or weed control at 2241.7 g/ha with Monocots [1] stood at 66%; in the experiment with Dicots [2], 70%; with Monocots [3] it was 17%; in the experiment on Dicots [4], 85%. The pest or weed control at 4483.4 g/ha stood at 70% in the experiment on Monocots [1], 100% in the experiment on Dicots [2], 67% in the experiment on Monocots [3] and 98% in the experiment on Dicots [4].
Turning to `C=CCOc1cc(Oc2ccc(C(F)(F)F)cc2Cl)ccc1[N+](=O)[O-]` [Example 12], the pest or weed control at 2241.7 g/ha in the experiment with Monocots [1] worked out at 72%; in the experiment on Dicots [2], 93%; in the experiment with Monocots [3], 99%; in the experiment on Dicots [4], 100%. The pest or weed control at 4483.4 g/ha in the experiment on Monocots [1] was found to be 86%; with Dicots [2] it was 96%; in the experiment with Monocots [3], 77%; in the experiment on Dicots [4] it was 100%.
In the case of `C#CCOc1cc(Oc2ccc(C(F)(F)F)cc2Cl)ccc1[N+](=O)[O-]` [Example 13], the pest or weed control at 2241.7 g/ha is 78% with Monocots [1], 72% with Dicots [2], 100% in the experiment on Monocots [3] and 100% in the experiment with Dicots [4]. The pest or weed control at 4483.4 g/ha in the experiment with Monocots [1] stood at 76%; with Dicots [2], 90%; in the experiment on Monocots [3] it was 77%; in the experiment on Dicots [4], 98%.
Turning to `CC#CCCOc1cc(Oc2ccc(C(F)(F)F)cc2Cl)ccc1[N+](=O)[O-]` [Example 14], the pest or weed control at 2241.7 g/ha in the experiment on Monocots [1] was 30%; in the experiment on Dicots [2] it was 22%; in the experiment on Monocots [3], 91%; with Dicots [4], 100%. Besides, the pest or weed control at 4483.4 g/ha in the experiment with Monocots [1] came out at 64%; with Dicots [2], 78%; in the experiment with Monocots [3] it was 61%; in the experiment on Dicots [4] it was 94%.
With `O=[N+]([O-])c1ccc(Oc2ccc(C(F)(F)F)cc2Cl)cc1OCCO` [Example 15, 2-chloro-α,α,α-trifluoro-p-tolyl-3-(2-hydroxyethoxy)-4-nitrophenyl ether], the pest or weed control at 2241.7 g/ha in the experiment with Monocots [1] is 68%; with Dicots [2] it was 90%; in the experiment on Monocots [3] it was 76%; in the experiment with Dicots [4], 94%. For the same compound, the pest or weed control at 4483.4 g/ha is 99% in the experiment on Monocots [1], 100% in the experiment on Dicots [2], 79% in the experiment with Monocots [3] and 99% in the experiment with Dicots [4].
For the compound `CCOCCOc1cc(Oc2ccc(C(F)(F)F)cc2Cl)ccc1[N+](=O)[O-]` [Example 16], the pest or weed control at 2241.7 g/ha in the experiment on Monocots [1] came to 67%; with Dicots [2] it was 75%; in the experiment with Monocots [3], 82%; in the experiment on Dicots [4], 94%. Further, the pest or weed control at 4483.4 g/ha in the experiment on Monocots [1] turned out to be 86%; with Dicots [2] it was 94%; with Monocots [3], 77%; with Dicots [4] it was 96%.
For `CN(C)CCOc1cc(Oc2ccc(C(F)(F)F)cc2Cl)ccc1[N+](=O)[O-]` [Example 17, 2-chloro-α,α,α-trifluoro-p-tolyl-3-(2-dimethylaminoethoxy)-4-nitrophenyl ether], the pest or weed control at 2241.7 g/ha was determined as 20% in the experiment with Monocots [1], 31% in the experiment on Dicots [2], 39% in the experiment with Monocots [3] and 98% in the experiment with Dicots [4]. Moreover, the pest or weed control at 4483.4 g/ha with Monocots [1] is 51%; with Dicots [2], 84%; in the experiment on Monocots [3], 45%; in the experiment with Dicots [4], 89%.
Take `O=[N+]([O-])c1ccc(Oc2ccc(C(F)(F)F)cc2Cl)cc1NCCO` [Example 22]: the pest or weed control at 2241.7 g/ha turned out to be 63% with Monocots [1], 77% in the experiment on Dicots [2], 70% with Monocots [3] and 100% in the experiment on Dicots [4]. For the same compound, the pest or weed control at 4483.4 g/ha was found to be 72% in the experiment on Monocots [1], 98% in the experiment with Dicots [2], 60% in the experiment with Monocots [3] and 99% with Dicots [4].

The values above are taken from patent USRE31731E, “Herbicidal 4-trifluoromethyl-4-nitrodiphenyl ethers” (priority 1978, dated 1984).
